Assay results reported in patent US10800791B2, “Triazole ACC inhibitors and uses thereof” (Gilead Apollo, LLC, priority 2015, dated 2020).
In brackets after ≈: the same amount, converted by molar mass. Where two headings read alike, the source gives them in different places.

Experiments:
Septoria tritici (St) = assay: Growth inhibition assay of fungal pathogens, St; type: cell-based; settings: Zymoseptoria tritici, 48 h
Procedure, shortened: (§1)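 Inhibition percentages reflect 48 h OD600 and visual scores relative to a 2% DMSO control. Test concentrations were 50, 10, 2 ppm or 2, 0.4, 0.08 ppm final, applied to spores in 17% V8 medium.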

[1] = test system: Fusarium virguliforme (Fv); assay: Growth inhibition assay of fungal pathogens, Fv; type: cell-based; settings: 48 h
Procedure, shortened: as §1

human (hACC2) = human (hACC2) (Homo sapiens, UniProt O00763); assay: In vitro ACC inhibition assay (ADP-Glo), hACC2; type: biochemical; settings: 5 nM ACC2, 20 μM ATP, 20 μM acetyl-CoA
Protocol: The detailed procedure is as follows. […] 10 μL ADP glo reagent was added. […] 20 μL kinase detection reagent was added.

Botrtyis cinerea (Bc) = assay: Growth inhibition assay of fungal pathogens, Bc; type: cell-based; settings: 48 h
Procedure, shortened: as §1

[2] = test system: Phytophthora capsici (Pc); assay: Growth inhibition assay of fungal pathogens, Pc; type: cell-based; settings: 48 h
Procedure, shortened: as §1

C. krusei = assay: Antifungal Activity Assay (broth microtiter MIC), C. krusei; type: cell-based, Candida krusei; settings: Pichia kudriavzevii, ATCC6258, 48 h
Procedure, shortened: (§2)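 CLSI M27-A3 microdilution; RPMI 1640+MOPS; 2.5×10^3 CFU/mL final inoculum; cultures from Sabouraud dextrose agar, 35° C overnight; compound working solution 128 μg/mL from 1 mg/mL DMSO stock; visual MIC at 48 h vs growth control.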

C. parapsilosis = assay: Antifungal Activity Assay (broth microtiter MIC), C. parapsilosis; type: cell-based, Candida parapsilosis; settings: Lodderomyces parapsilosis, ATCC22019, 48 h
Procedure, shortened: as §2

[3] = test system: Fusarium moniliforme (Fm); assay: Growth inhibition assay of fungal pathogens, Fm; type: cell-based; settings: for IC90: Fusarium verticillioides, 48 h, read-out: Concentration at 90% Inhibition Fm
Procedure, shortened: as §1

Rhizoctonia solani (Rs) = assay: Growth inhibition assay of fungal pathogens, Rs; type: cell-based; settings: 48 h
fungal (fACC2) = fungal (fACC2) (UniProt Q00955); settings: read-out: fACC2 (in vitro ACC2 Inhibition Assay, IC50), ADP-Glo, 5 nM ACC2, 20 μM ATP, 20 μM acetyl-CoA
[4] = Fusarium moniliforme, growth inhibition at 48 hours vs 2% DMSO control
[5] = Septoria tritici, growth inhibition at 48 hours vs 2% DMSO control, read-out: Concentration at 90% Inhibition St
[6] = Septoria tritici, growth inhibition vs 2% DMSO control at 48 hours, read-out: Concentration at 90% Inhibition St
[7] = growth inhibition at 48 hours vs 2% DMSO control, read-out: Concentration at 90% Inhibition Fv
[8] = growth inhibition vs 2% DMSO control at 48 hours, read-out: Concentration at 90% Inhibition Fv
[9] = Botrtyis cinerea, growth inhibition at 48 hours vs 2% DMSO control, read-out: Concentration at 90% Inhibition Bc
[10] = Botrtyis cinerea, growth inhibition vs 2% DMSO control at 48 hours, read-out: Concentration at 90% Inhibition Bc
[11] = growth inhibition at 48 hours vs 2% DMSO control, read-out: Concentration at 90% Inhibition Pc
[12] = growth inhibition vs 2% DMSO control at 48 hours, read-out: Concentration at 90% Inhibition Pc
[13] = Table 3a, ATCC 6258, 3 replicates, MIC recorded at 48 h, read-out: MIC, C. krusei ATCC 6258
[14] = Table 3b (additional results), ATCC 6258, 3 replicates, MIC recorded at 48 h, read-out: MIC, C. krusei ATCC 6258
[15] = Table 3a, ATCC 22019, 3 replicates, MIC recorded at 48 h, read-out: MIC, C. parapsilosis ATCC 22019
[16] = Table 3b (additional results), ATCC 22019, 3 replicates, MIC recorded at 48 h, read-out: MIC, C. parapsilosis ATCC 22019
[17] = Fusarium moniliforme, growth inhibition vs 2% DMSO control at 48 hours
[18] = mycelial plugs, growth inhibition at 48 hours vs 2% DMSO control, read-out: Concentration at 90% Inhibition Rs
[19] = mycelial plugs, growth inhibition vs 2% DMSO control at 48 hours, read-out: Concentration at 90% Inhibition Rs

Sequence of human (hACC2) (O00763 whole entry): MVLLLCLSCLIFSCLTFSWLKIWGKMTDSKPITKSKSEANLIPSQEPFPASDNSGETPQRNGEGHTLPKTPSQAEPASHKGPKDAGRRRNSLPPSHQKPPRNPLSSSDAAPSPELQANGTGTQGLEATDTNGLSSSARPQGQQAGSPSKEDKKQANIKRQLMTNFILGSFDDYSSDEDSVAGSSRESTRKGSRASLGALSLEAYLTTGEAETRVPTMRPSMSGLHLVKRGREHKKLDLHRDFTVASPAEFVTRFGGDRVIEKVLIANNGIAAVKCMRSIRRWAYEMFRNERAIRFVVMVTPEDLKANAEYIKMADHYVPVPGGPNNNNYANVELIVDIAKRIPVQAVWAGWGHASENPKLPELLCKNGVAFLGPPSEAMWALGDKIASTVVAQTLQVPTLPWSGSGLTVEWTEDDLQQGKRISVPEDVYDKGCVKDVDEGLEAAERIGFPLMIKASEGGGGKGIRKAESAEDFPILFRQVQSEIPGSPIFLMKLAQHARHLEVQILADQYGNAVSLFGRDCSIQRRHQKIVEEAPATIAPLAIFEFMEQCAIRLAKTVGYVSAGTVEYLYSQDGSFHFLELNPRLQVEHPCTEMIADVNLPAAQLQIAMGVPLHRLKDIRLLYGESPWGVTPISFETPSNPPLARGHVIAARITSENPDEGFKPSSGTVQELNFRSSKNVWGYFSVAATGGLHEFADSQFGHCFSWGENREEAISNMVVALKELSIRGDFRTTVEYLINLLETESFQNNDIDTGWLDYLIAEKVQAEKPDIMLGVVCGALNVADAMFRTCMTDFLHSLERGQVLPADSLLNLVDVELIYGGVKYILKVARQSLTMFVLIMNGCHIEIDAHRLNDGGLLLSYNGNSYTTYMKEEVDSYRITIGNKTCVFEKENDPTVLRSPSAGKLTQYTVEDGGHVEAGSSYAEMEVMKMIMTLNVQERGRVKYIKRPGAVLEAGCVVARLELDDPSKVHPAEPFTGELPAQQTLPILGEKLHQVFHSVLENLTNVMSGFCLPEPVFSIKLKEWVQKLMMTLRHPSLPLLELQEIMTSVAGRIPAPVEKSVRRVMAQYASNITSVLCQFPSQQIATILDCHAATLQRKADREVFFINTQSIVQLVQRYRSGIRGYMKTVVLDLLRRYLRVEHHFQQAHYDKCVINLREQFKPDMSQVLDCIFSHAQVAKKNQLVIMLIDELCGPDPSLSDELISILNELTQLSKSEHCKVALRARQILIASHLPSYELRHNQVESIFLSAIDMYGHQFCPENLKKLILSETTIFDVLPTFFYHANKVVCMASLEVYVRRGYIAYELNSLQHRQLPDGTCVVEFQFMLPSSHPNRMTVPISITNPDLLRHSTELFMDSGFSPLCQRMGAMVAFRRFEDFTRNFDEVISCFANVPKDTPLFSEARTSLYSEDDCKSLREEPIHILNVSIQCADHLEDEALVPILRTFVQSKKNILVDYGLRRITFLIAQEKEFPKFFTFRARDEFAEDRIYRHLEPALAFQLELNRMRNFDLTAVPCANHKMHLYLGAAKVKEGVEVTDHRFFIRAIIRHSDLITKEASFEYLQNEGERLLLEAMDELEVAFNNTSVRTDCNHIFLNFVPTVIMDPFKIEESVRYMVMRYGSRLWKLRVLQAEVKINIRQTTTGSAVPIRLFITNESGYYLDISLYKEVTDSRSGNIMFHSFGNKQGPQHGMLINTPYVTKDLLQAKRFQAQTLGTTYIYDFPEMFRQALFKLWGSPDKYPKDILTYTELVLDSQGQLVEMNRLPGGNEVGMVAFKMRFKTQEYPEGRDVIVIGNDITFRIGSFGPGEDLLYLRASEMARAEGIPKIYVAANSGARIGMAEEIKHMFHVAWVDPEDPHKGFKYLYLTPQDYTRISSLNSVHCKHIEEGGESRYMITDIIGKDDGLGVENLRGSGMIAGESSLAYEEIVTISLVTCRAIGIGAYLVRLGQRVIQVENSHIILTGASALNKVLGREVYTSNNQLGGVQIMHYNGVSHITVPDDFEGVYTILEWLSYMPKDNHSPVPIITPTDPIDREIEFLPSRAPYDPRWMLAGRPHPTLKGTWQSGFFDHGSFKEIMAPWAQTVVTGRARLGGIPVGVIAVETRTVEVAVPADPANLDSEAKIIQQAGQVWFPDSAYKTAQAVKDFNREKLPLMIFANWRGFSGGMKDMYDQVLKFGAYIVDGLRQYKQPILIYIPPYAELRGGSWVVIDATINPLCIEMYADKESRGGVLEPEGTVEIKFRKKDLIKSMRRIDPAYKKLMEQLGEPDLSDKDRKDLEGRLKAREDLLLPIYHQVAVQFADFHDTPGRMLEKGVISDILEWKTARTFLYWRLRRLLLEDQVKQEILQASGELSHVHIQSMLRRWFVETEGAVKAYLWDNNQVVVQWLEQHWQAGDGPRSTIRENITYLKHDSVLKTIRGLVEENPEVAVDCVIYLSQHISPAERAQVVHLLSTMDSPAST
Sequence of fungal (fACC2) (Q00955 whole entry): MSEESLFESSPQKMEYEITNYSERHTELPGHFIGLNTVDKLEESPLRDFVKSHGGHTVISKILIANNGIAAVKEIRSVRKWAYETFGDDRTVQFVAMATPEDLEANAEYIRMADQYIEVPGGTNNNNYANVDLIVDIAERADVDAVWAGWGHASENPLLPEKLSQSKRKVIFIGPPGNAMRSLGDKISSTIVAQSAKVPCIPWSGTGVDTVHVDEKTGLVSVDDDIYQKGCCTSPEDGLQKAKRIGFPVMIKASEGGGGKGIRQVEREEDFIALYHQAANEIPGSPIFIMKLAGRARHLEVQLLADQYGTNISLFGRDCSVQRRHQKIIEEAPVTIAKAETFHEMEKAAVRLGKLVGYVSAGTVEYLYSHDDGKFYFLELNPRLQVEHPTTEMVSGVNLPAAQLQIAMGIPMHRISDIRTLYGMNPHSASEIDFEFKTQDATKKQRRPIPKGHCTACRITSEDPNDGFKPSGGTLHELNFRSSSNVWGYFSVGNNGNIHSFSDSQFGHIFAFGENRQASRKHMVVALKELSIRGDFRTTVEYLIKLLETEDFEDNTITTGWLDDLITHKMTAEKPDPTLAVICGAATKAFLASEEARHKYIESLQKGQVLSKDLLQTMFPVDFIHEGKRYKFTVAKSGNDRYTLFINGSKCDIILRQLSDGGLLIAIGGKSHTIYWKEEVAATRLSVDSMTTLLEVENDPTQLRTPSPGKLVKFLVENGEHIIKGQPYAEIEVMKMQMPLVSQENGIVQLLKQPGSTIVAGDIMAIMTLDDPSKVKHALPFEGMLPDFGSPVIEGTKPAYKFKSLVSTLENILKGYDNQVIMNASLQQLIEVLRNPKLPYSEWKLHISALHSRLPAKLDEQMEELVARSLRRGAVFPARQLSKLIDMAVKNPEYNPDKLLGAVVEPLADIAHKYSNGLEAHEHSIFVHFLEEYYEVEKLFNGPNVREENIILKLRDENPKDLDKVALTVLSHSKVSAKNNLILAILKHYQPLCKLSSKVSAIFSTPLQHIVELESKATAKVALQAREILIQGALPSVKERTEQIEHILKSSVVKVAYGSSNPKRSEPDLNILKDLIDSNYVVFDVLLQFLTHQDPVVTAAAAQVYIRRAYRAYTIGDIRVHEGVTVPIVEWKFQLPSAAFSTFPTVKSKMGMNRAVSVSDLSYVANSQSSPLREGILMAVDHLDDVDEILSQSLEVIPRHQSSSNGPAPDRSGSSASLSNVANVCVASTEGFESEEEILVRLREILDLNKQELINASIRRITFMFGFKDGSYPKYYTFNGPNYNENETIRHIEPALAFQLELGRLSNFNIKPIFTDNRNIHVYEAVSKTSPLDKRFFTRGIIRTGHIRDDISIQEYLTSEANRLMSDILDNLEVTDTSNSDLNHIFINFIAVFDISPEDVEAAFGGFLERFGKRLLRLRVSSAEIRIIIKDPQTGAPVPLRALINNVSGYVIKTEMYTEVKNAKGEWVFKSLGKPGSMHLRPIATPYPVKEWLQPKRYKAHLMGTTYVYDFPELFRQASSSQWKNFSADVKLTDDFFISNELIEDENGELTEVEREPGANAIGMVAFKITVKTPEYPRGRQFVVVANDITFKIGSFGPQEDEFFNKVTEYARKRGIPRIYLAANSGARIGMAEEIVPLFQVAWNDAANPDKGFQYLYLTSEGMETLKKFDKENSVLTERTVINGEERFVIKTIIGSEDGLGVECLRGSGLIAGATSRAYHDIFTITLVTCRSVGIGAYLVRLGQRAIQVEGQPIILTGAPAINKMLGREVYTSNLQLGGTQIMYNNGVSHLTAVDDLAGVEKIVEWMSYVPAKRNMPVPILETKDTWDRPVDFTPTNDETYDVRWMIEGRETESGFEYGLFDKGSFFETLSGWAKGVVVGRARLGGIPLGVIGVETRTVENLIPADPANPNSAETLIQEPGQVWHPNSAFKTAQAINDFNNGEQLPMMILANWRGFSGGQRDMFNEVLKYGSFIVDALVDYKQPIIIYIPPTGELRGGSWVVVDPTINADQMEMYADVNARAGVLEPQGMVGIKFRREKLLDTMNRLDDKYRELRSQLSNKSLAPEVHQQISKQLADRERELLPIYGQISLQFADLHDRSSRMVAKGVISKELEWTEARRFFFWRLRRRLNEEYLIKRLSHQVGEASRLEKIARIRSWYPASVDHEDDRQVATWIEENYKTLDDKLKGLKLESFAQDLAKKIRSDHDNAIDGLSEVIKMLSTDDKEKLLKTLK

| SMILES | IC50 (human (hACC2); Table 2a) | IC50 (human (hACC2); Table 2b, additional results) | IC50 (fungal (fACC2); Table 2a) | IC50 (fungal (fACC2); Table 2b, additional results) | IC90 (Septoria tritici (St); [5]) | IC90 (Septoria tritici (St); [6]) | IC90 [1, 7] | IC90 [1, 8] | IC90 (Botrtyis cinerea (Bc); [9]) | IC90 (Botrtyis cinerea (Bc); [10]) | IC90 [2, 11] | IC90 [2, 12] | MIC (C. krusei; [13]) | MIC (C. krusei; [14]) | MIC (C. parapsilosis; [15]) | MIC (C. parapsilosis; [16]) | IC90 [3, 4] | IC90 [3, 17] | IC90 (Rhizoctonia solani (Rs); [18]) | IC90 (Rhizoctonia solani (Rs); [19]) | also measured |
| --- | --- | --- | --- | --- | --- | --- | --- | --- | --- | --- | --- | --- | --- | --- | --- | --- | --- | --- | --- | --- | --- |
| Cc1c(-n2nccn2)sc2c1c(=O)n(C(C)(C)C(=O)NC(C)C)c(=O)n2C[C@H](OC(C)C)c1cc(F)ccc1OCC#N [Compound I-56, (R)-2-(1-(2-(2-(cyanomethoxy)-5-fluorophenyl)-2-isopropoxyethyl)-5-methyl-2,4-dioxo-6-(2H-1,2,3-triazol-2-yl)-1,4-dihydrothieno[2,3-d]pyrimidin-3(2H)-yl)-N-isopropyl-2-methylpropanamide] | 10 to 40 nM | 10 to 40 nM | 1 to 5 nM | 1 to 5 nM |  |  |  |  |  |  |  |  |  |  |  |  |  |  |  |  | IC90 (Septoria tritici (St); read-out: Concentration at 90% Inhibition St, Septoria tritici, growth inhibition at 48 hours vs 2% DMSO control): 10 µg/mL (≈ 16.3 µM); IC90 (Septoria tritici (St); read-out: Concentration at 90% Inhibition St, Septoria tritici, growth inhibition vs 2% DMSO control at 48 hours): > 50 µg/mL; IC90 ([1]; read-out: Concentration at 90% Inhibition Fv, Fusarium virguliforme, growth inhibition at 48 hours vs 2% DMSO control): 0.08 µg/mL (≈ 0.131 µM); IC90 ([1]; read-out: Concentration at 90% Inhibition Fv, Fusarium virguliforme, growth inhibition vs 2% DMSO control at 48 hours): 0.08 µg/mL (≈ 0.131 µM); IC90 (Botrtyis cinerea (Bc); read-out: Concentration at 90% Inhibition Bc, Botrtyis cinerea, growth inhibition at 48 hours vs 2% DMSO control): 0.4 µg/mL (≈ 0.654 µM); IC90 (Botrtyis cinerea (Bc); read-out: Concentration at 90% Inhibition Bc, Botrtyis cinerea, growth inhibition vs 2% DMSO control at 48 hours): 0.4 µg/mL (≈ 0.654 µM); IC90 ([2]; read-out: Concentration at 90% Inhibition Pc, Phytophthora capsici, growth inhibition at 48 hours vs 2% DMSO control): > 50 µg/mL; IC90 ([2]; read-out: Concentration at 90% Inhibition Pc, Phytophthora capsici, growth inhibition vs 2% DMSO control at 48 hours): > 50 µg/mL; MIC (C. krusei; read-out: MIC, C. krusei ATCC 6258, Table 3a, 3 replicates, MIC recorded at 48 h): 0.06 to 0.24 µg/mL (≈ 0.0981 to 0.392 µM); MIC (C. krusei; read-out: MIC, C. krusei ATCC 6258, Table 3b (additional results), 3 replicates, MIC recorded at 48 h): 0.25 to 1 µg/mL (≈ 0.409 to 1.63 µM); MIC (C. parapsilosis; read-out: MIC, C. parapsilosis ATCC 22019, Table 3a, 3 replicates, MIC recorded at 48 h): 0.25 to 1 µg/mL (≈ 0.409 to 1.63 µM); MIC (C. parapsilosis; read-out: MIC, C. parapsilosis ATCC 22019, Table 3b (additional results), 3 replicates, MIC recorded at 48 h): 1.01 to 2 µg/mL (≈ 1.65 to 3.27 µM); Concentration at 90% Inhibition Fm [3, 4]: AA (compound concentration of 0.08 ppm at 90% inhibition of fungal pathogens); IC90 [3]: 0.08 µg/mL (≈ 0.131 µM); IC90 (Rhizoctonia solani (Rs); read-out: Concentration at 90% Inhibition Rs, Rhizoctonia solani, mycelial plugs, growth inhibition at 48 hours vs 2% DMSO control): 2 µg/mL (≈ 3.27 µM); IC90 (Rhizoctonia solani (Rs); read-out: Concentration at 90% Inhibition Rs, Rhizoctonia solani, mycelial plugs, growth inhibition vs 2% DMSO control at 48 hours): 2 µg/mL (≈ 3.27 µM) |
| COc1ccc(F)cc1[C@H](Cn1c(=O)n(C(C)(C)C(=O)N2CC=CC2)c(=O)c2c(C)c(-n3nccn3)sc21)OC1CCOCC1 [Compound I-62, (R)-3-(1-(2,5-dihydro-1H-pyrrol-1-yl)-2-methyl-1-oxopro-pan-2-yl)-1-(2-(5-fluoro-2-methoxyphenyl)-2-((tetrahydro-2H-pyran-4-yl)oxy)ethyl)-5-methyl-6-(2H-1,2,3-triazol-2-yl)thieno[2,3-d]pyrimidine-2,4(1H,3H)-dione] | 1 to 5 nM | 1 to 5 nM | 1 to 5 nM | 1 to 5 nM | > 50 µg/mL | > 50 µg/mL | 0.4 µg/mL (≈ 0.626 µM) | 0.4 µg/mL (≈ 0.626 µM) | 2 µg/mL (≈ 3.13 µM) | 2 µg/mL (≈ 3.13 µM) | > 50 µg/mL | > 50 µg/mL | 0.25 to 1 µg/mL (≈ 0.391 to 1.57 µM) | 0.25 to 1 µg/mL (≈ 0.391 to 1.57 µM) | 0.25 to 1 µg/mL (≈ 0.391 to 1.57 µM) | 1.01 to 2 µg/mL (≈ 1.58 to 3.13 µM) | 0.08 µg/mL (≈ 0.125 µM) | 0.08 µg/mL (≈ 0.125 µM) | 0.08 µg/mL (≈ 0.125 µM) | 0.08 µg/mL (≈ 0.125 µM) |  |
| COc1ccc(F)cc1[C@H](Cn1c(=O)n(C(C)(C)C(=O)N2CC=CC2)c(=O)c2c(C)c(-n3nccn3)sc21)OC[C@@H](C)O [Compound I-63, 3-(1-(2,5-dihydro-1H-pyrrol-1-yl)-2-methyl-1-oxopropan-2-yl)-1-((R)-2-(5-fluoro-2-methoxyphenyl)-2-((R)-2-hydroxypropoxy)ethyl)-5-methyl-6-(2H-1,2,3-triazol-2-yl)thieno[2,3-d]pyrimidine-2,4(1H,3H)-dione] | 5 to 10 nM | 5 to 10 nM | 0.4 to 1 nM | 0.3 to 1 nM | > 50 µg/mL | > 50 µg/mL | 0.4 µg/mL (≈ 0.653 µM) | 0.4 µg/mL (≈ 0.653 µM) | 2 µg/mL (≈ 3.26 µM) | 2 µg/mL (≈ 3.26 µM) | > 50 µg/mL | > 50 µg/mL | 0.25 to 1 µg/mL (≈ 0.408 to 1.63 µM) | > 4.01 µg/mL | 1.1 to 2 µg/mL (≈ 1.8 to 3.26 µM) | 2.01 to 4 µg/mL (≈ 3.28 to 6.53 µM) | 0.08 µg/mL (≈ 0.131 µM) | 0.08 µg/mL (≈ 0.131 µM) | 0.4 µg/mL (≈ 0.653 µM) | 0.4 µg/mL (≈ 0.653 µM) |  |
